Experimental data from patent US5696083A, “Personal care composition containing pyrithione and polymyxin” (Olin Corporation, priority 1994, dated 1997).

Experiments:
Type in all cases: cell-based
Proteus mirabilis [1] = assay: Checkerboard MIC Test in Tryptic Soy Broth; settings: 28° C., 3 days; for Minimum Inhibitory Concentration, Compound Used Alone: checkerboard, PE methanesulfonate, Na+, 14,310 units/mg
Description: (§1) Determinations of minimum inhibitory concentrations (MIC's) of the two compounds (pyrithione salts and/or polymyxin sulfate) in a nutrient broth (alone and in mixtures) were conducted to evaluate interactions. Stock solutions of pyrithione salts and/or polymyxin salts were diluted in Tryptic Soy Broth (Difco), and the dilutions were inoculated with an equal volume of bacterial culture (10^6 /ml) or fungal spore suspension (10^5 /ml) in Tryptic Soy Broth and incubated at 28° C. for 3-7 days.
(§2) The interactions of the antimicrobials were determined according to accepted procedures (M. C. Berenbaum [Tables 1 and 2] and P. F. Dougherty "Microdilution Transfer Plate Technique for Determining In Vitro Synergy of Antimicrobial Agents", ANTIMICROBIAL AGENTS AND CHEMOTHERAPY, Vol. 11, No. 2, p. 225-228 (Feb. 1977, American Society for Microbiology) [Tables 3 and 4]). The concentration of each agent in the combination that inhibits the organisms is expressed as a fraction of the concentration that causes the same effect when the same agent is tested alone (i.e., its fractional inhibitory concentration, FIC). If the sum of the FIC's is 1, the combination is additive in its antimicrobial effect; if the sum is <1, the combination is synergistic; and if the sum is >1, the combination is antagonistic.
(§3) ^b Each dilution contained 10^6 bacteria/ml of 10^5 fungi/ml.

Pseudomonas fluorescens [2] = assay: Checkerboard MIC Test in Tryptic Soy Broth; settings: 28° C., 3 days; for Minimum Inhibitory Concentration, Compound Used Alone: checkerboard, PE methanesulfonate, Na+, 14,310 units/mg
Description: as §1, §2, §3

Pseudomonas aeruginosa [3] = assay: Checkerboard MIC Test in Tryptic Soy Broth; settings: 28° C., 3 days; for Minimum Inhibitory Concentration, Compound Used Alone: checkerboard, PE methanesulfonate, Na+, 14,310 units/mg
Description: as §1, §2, §3

Candida albicans [4] = assay: Checkerboard MIC Test in Tryptic Soy Broth; settings: 28° C., 5 days; for Minimum Inhibitory Concentration, Compound Used Alone: checkerboard, PE methanesulfonate, Na+, 14,310 units/mg
Description: as §1, §2, §3

[5] = system: Trichophyton mentagrophytes; assay: Checkerboard MIC Test in Tryptic Soy Broth; settings: 28° C., 5 days; for Minimum Inhibitory Concentration, Compound Used Alone: checkerboard, PE methanesulfonate, Na+, 14,310 units/mg
Description: as §1, §2, §3

Pseudomonas oleovorans = assay: MIC in Tryptic Soy Broth, compounds alone and in mixtures; settings: Table 1, 28° C., 3 days
Description: as §1, §2
(§4) ^a Compounds were serially diluted in Tryptic soy Broth (DIFCO),
as §3
(§5) ^a Stock solutions of ZP in dimethylsulfoxide and PB in sterile water

Citrobacter freundii = assay: as above; settings: Table 1, 28° C., 3 days
Description: as §1, §2, §4, §3, §5

Proteus mirabilis [6] = assay: as above; settings: Table 1, 28° C., 3 days
Description: as §1, §2, §4, §3, §5

Chaetomium globosium = assay: as above; settings: Table 1, 28° C., 6-7 days
Description: as §1, §2, §4, §3, §5

Cephalosporium sp. = assay: as above; settings: Table 1, 28° C., 6-7 days
Description: as §1, §2, §4, §3, §5

Penicillin pinophilium = assay: as above; settings: Table 1, 28° C., 6-7 days
Description: as §1, §2, §4, §3, §5

Pseudomonas Stutzeri = assay: as above; settings: Table 1, 28° C., 3 days
Description: as §1, §2, §4, §3, §5

Pseudomonas fluorescens [7] = assay: as above; settings: Table 1, 28° C., 3 days
Description: as §1, §2, §4, §3, §5

Aureobasidium pullulans = assay: as above; settings: Table 1, 28° C., 6-7 days
Description: as §1, §2, §4, §3, §5

Aspergillus niger = assay: as above; settings: Table 1, 28° C., 6-7 days
Description: as §1, §2, §4, §3, §5

Fusarium solani = assay: as above; settings: Table 1, 28° C., 6-7 days
Description: as §1, §2, §4, §3, §5

Pseudomonas aeruginosa [8] = assay: as above; settings: Table 1, 28° C., 3 days
Description: as §1, §2, §4, §3, §5

Gliocladium virens = assay: as above; settings: Table 1, 28° C., 6-7 days
Description: as §1, §2, §4, §3, §5

Pseudomonas rubescens = assay: as above; settings: Table 1, 28° C., 3 days
Description: as §1, §2, §4, §3, §5

Candida albicans [9] = assay: as above; settings: Table 1, 28° C., 6-7 days
Description: as §1, §2, §4, §3, §5

[10] = system: Trichophyton mentagrophytes; assay: as above; settings: Table 1, 28° C., 6-7 days
Description: as §1, §2, §4, §3, §5

Alcaligens faecalis = assay: as above; settings: Table 1, 28° C., 3 days
Description: as §1, §2, §4, §3, §5

[11] = Table 3, concentration of the component in SP+PE mixtures, SP/PE range 1/16-4
[12] = Table 3, concentration of the component in SP+PE mixtures, SP/PE range ≤1/128-8
[13] = Table 3, concentration of the component in SP+PE mixtures, SP/PE range 4-16
[14] = Table 3, concentration of the component in SP+PE mixtures, SP/PE range 1/2048-1/4
[15] = Table 3, concentration of the component in SP+PE mixtures, SP/PE range 1/2-8
[16] = alone, Tryptic Soy Broth, PB sulfate 7610 units/mg
[17] = concentration of the component in SP+PB mixture, SP/PB ratio 650
[18] = concentration of the component in SP+PB mixture, SP/PB ratio 1
[19] = concentration of the component in SP+PB mixture, SP/PB ratio 1/20-1/10

With `[Na+].[O-][n+]1ccccc1[S-]` [SP, sodium pyrithione] the “Minimum Inhibitory Concentration, Compound Used Alone” value (Proteus mirabilis [1]; Table 3) was 512 ppm, the “Minimum Inhibitory Concentration, Mixture Range” value (Proteus mirabilis [1]; [11]) was 256 ppm and the “Minimum Inhibitory Concentration, Compound Used Alone” value (Pseudomonas fluorescens [2]; Table 3) was 128 ppm. For the same compound, the “Minimum Inhibitory Concentration, Mixture Range” value (Pseudomonas fluorescens [2]; [12]) was ≤1-32 ppm, the “Minimum Inhibitory Concentration, Compound Used Alone” value (Pseudomonas aeruginosa [3]; Table 3) was 128 ppm and the “Minimum Inhibitory Concentration, Mixture Range” value (Pseudomonas aeruginosa [3]; [13]) was 32-64 ppm. For the same compound, the “Minimum Inhibitory Concentration, Compound Used Alone” value (Candida albicans [4]; Table 3) was 32 ppm, the “Minimum Inhibitory Concentration, Mixture Range” value (Candida albicans [4]; [14]) was 1-16 ppm and the “Minimum Inhibitory Concentration, Compound Used Alone” value ([5]; Table 3) was 32 ppm. The “Minimum Inhibitory Concentration, Mixture Range” value [5, 15] was 16-32 ppm, the “Minimum Inhibitory Concentration, Compound Used Alone” value (Pseudomonas oleovorans; [16]) was 12.7 ppm and the “Minimum Inhibitory Concentration, Mixture” value (Pseudomonas oleovorans; [17]) was 3.2 ppm. For the same compound, the “Minimum Inhibitory Concentration, Compound Used Alone” value (Citrobacter freundii; [16]) was 12.7 ppm, the “Minimum Inhibitory Concentration, Mixture” value (Citrobacter freundii; concentration of the component in SP+PB mixture, SP/PB ratio 41-81) was 6.7 ppm and the “Minimum Inhibitory Concentration, Compound Used Alone” value (Proteus mirabilis [6]; [16]) was 325.1 ppm. The “Minimum Inhibitory Concentration, Mixture” value (Proteus mirabilis [6]; concentration of the component in SP+PB mixture, SP/PB ratio 1/20-1) was 61.0 ppm, the “Minimum Inhibitory Concentration, Compound Used Alone” value (Chaetomium globosium; [16]) was 12.7 ppm and the “Minimum Inhibitory Concentration, Mixture” value (Chaetomium globosium; concentration of the component in SP+PB mixture, SP/PB ratio 1/10-1/5) was 3.8 ppm. For the same compound, the “Minimum Inhibitory Concentration, Compound Used Alone” value (Cephalosporium sp.; [16]) was 50.8 ppm, the “Minimum Inhibitory Concentration, Mixture” value (Cephalosporium sp.; [18]) was 15.2 ppm and the “Minimum Inhibitory Concentration, Compound Used Alone” value (Penicillin pinophilium; [16]) was 20.3 ppm. The “Minimum Inhibitory Concentration, Mixture” value (Penicillin pinophilium; [19]) was 5.1 ppm, the “Minimum Inhibitory Concentration, Compound Used Alone” value (Pseudomonas Stutzeri; [16]) was 81.3 ppm and the “Minimum Inhibitory Concentration, Mixture” value (Pseudomonas Stutzeri; concentration of the component in SP+PB mixture, SP/PB ratio 325-650) was 40.6 ppm. The “Minimum Inhibitory Concentration, Compound Used Alone” value (Pseudomonas fluorescens [7]; [16]) was 135.5 ppm, the “Minimum Inhibitory Concentration, Mixture” value (Pseudomonas fluorescens [7]; concentration of the component in SP+PB mixture, SP/PB ratio 3-10) was 6.7 ppm and the “Minimum Inhibitory Concentration, Compound Used Alone” value (Aureobasidium pullulans; [16]) was 15.2 ppm. The “Minimum Inhibitory Concentration, Mixture” value (Aureobasidium pullulans; [19]) was 5.1 ppm, the “Minimum Inhibitory Concentration, Compound Used Alone” value (Aspergillus niger; [16]) was 121.9 ppm and the “Minimum Inhibitory Concentration, Mixture” value (Aspergillus niger; concentration of the component in SP+PB mixture, SP/PB ratio 1/10) was 40.6 ppm. For the same compound, the “Minimum Inhibitory Concentration, Compound Used Alone” value (Fusarium solani; [16]) was 243.8 ppm, the “Minimum Inhibitory Concentration, Mixture” value (Fusarium solani; [18]) was 40.6 ppm and the “Minimum Inhibitory Concentration, Compound Used Alone” value (Pseudomonas aeruginosa [8]; [16]) was 162.6 ppm. For the same compound, the “Minimum Inhibitory Concentration, Mixture” value (Pseudomonas aeruginosa [8]; concentration of the component in SP+PB mixture, SP/PB ratio 163-325) was 81.3 ppm, the “Minimum Inhibitory Concentration, Compound Used Alone” value (Gliocladium virens; [16]) was 108.3 ppm and the “Minimum Inhibitory Concentration, Mixture” value (Gliocladium virens; concentration of the component in SP+PB mixture, SP/PB ratio 1/10-1) was 15.2 ppm. For the same compound, the “Minimum Inhibitory Concentration, Compound Used Alone” value (Pseudomonas rubescens; [16]) was 23.7 ppm, the “Minimum Inhibitory Concentration, Mixture” value (Pseudomonas rubescens; [17]) was 2.5 ppm and the “Minimum Inhibitory Concentration, Compound Used Alone” value (Candida albicans [9]; [16]) was 33.9 ppm. The “Minimum Inhibitory Concentration, Mixture” value (Candida albicans [9]; [19]) was 6.7 ppm, the “Minimum Inhibitory Concentration, Compound Used Alone” value [10, 16] was 20.3 ppm and the “Minimum Inhibitory Concentration, Mixture” value ([10]; concentration of the component in SP+PB mixture, SP/PB ratio 1/10-1/3) was 8.5 ppm. The “Minimum Inhibitory Concentration, Compound Used Alone” value (Alcaligens faecalis; [16]) was 30.5 ppm and the “Minimum Inhibitory Concentration, Mixture” value (Alcaligens faecalis; concentration of the component in SP+PB mixture, SP/PB ratio 5-41) was 9.3 ppm.
For Polymyxin E methanesulfonate [PE], the “Minimum Inhibitory Concentration, Compound Used Alone” value (Proteus mirabilis [1]; Table 3) was > 16,400 ppm, the “Minimum Inhibitory Concentration, Mixture Range” value (Proteus mirabilis [1]; [11]) was 64-4096 ppm and the “Minimum Inhibitory Concentration, Compound Used Alone” value (Proteus mirabilis [1]; Table 4) was > 16,400 ppm. The “Minimum Inhibitory Concentration, Mixture Range” value (Proteus mirabilis [1]; Table 4, concentration of the component in ZP+PE mixtures, ZP/PE range 1/1024) was 4096 ppm, the “Minimum Inhibitory Concentration, Compound Used Alone” value (Pseudomonas fluorescens [2]; Table 3) was 256 ppm and the “Minimum Inhibitory Concentration, Mixture Range” value (Pseudomonas fluorescens [2]; [12]) was 4-128 ppm. The “Minimum Inhibitory Concentration, Compound Used Alone” value (Pseudomonas fluorescens [2]; Table 4) was 256 ppm, the “Minimum Inhibitory Concentration, Mixture Range” value (Pseudomonas fluorescens [2]; Table 4, concentration of the component in ZP+PE mixtures, ZP/PE range ≤1/128-4) was 4-128 ppm and the “Minimum Inhibitory Concentration, Compound Used Alone” value (Pseudomonas aeruginosa [3]; Table 3) was 16 ppm. For the same compound, the “Minimum Inhibitory Concentration, Mixture Range” value (Pseudomonas aeruginosa [3]; [13]) was 4-8 ppm, the “Minimum Inhibitory Concentration, Compound Used Alone” value (Pseudomonas aeruginosa [3]; Table 4) was 16 ppm and the “Minimum Inhibitory Concentration, Mixture Range” value (Pseudomonas aeruginosa [3]; Table 4, concentration of the component in ZP+PE mixtures, ZP/PE range 2-8) was 4-8 ppm. The “Minimum Inhibitory Concentration, Compound Used Alone” value (Candida albicans [4]; Table 3) was greater than 8200 ppm, the “Minimum Inhibitory Concentration, Mixture Range” value (Candida albicans [4]; [14]) was 64-2048 ppm and the “Minimum Inhibitory Concentration, Compound Used Alone” value (Candida albicans [4]; Table 4) was greater than 8200 ppm. The “Minimum Inhibitory Concentration, Mixture Range” value (Candida albicans [4]; Table 4, concentration of the component in ZP+PE mixtures, ZP/PE range 1/2048-1/4) was 32-2048 ppm, the “Minimum Inhibitory Concentration, Compound Used Alone” value ([5]; Table 3) was 64 ppm and the “Minimum Inhibitory Concentration, Mixture Range” value [5, 15] was 4-32 ppm. For the same compound, the “Minimum Inhibitory Concentration, Compound Used Alone” value ([5]; Table 4) was 64 ppm and the “Minimum Inhibitory Concentration, Mixture Range” value ([5]; Table 4, concentration of the component in ZP+PE mixtures, ZP/PE range 1/4-4) was 4-32 ppm.
